Measured values reported in US8962842B2, “2-pyridone antimicrobial compositions” (priority 2010, dated 2015).
Read-outs that look alike come from different tables or passages of the source.

How the values were obtained:
[1] = test system: Escherichia coli (6 strains); experiment: MIC range, broader panel of Quotient Bioresearch strains (Table 4); assay type: cell-based; details: for MIC50: read-out: MIC Range Median, Escherichia coli (6 strains)
[2] = test system: Klebsiella pneumonia (4 strains); experiment: as above; assay type: cell-based; details: Klebsiella pneumoniae; for MIC50: read-out: MIC Range Median, Klebsiella pneumonia (4 strains)
[3] = test system: Pseudomonas aeruginosa (12 strains); experiment: as above; assay type: cell-based; details: for MIC50: read-out: MIC Range Median, Pseudomonas aeruginosa (12 strains)
[4] = test system: Burkholderia cepacia (5 strains); experiment: as above; assay type: cell-based; details: for MIC50: read-out: MIC Range Median, Burkholderia cepacia (5 strains)
[5] = test system: Haemophilus influenza (5 strains); experiment: as above; assay type: cell-based, Haemophilus influenzae; details: for MIC50: 16 h, Median of the strain panel
[6] = test system: Acinetobacter baumannii (12 strains); experiment: as above; assay type: cell-based; details: for MIC50: read-out: MIC Range Median, Acinetobacter baumannii (12 strains)
[7] = test system: Staphylococcus aureus (16 strains); experiment: MIC range, broader panel of Quotient Bioresearch strains (Table 3); details: for MIC50: read-out: MIC Range Median, Staphylococcus aureus (16 strains)
[8] = test system: Enterococcus faecalis (5 strains); experiment: as above; details: for MIC50: read-out: MIC Range Median, Enterococcus faecalis (5 strains)
[9] = test system: Enterococcus faecium (3 strains); experiment: as above; details: for MIC50: read-out: MIC Range Median, Enterococcus faecium (3 strains)
[10] = test system: Streptococcus pneumonia (5 strains); experiment: as above; details: Streptococcus pneumoniae; for MIC50: read-out: MIC Range Median, Streptococcus pneumonia (5 strains)
[11] = test system: Streptococcus pyogenes (4 strains); experiment: as above; details: for MIC50: read-out: MIC Range Median, Streptococcus pyogenes (4 strains)
[12] = test system: Group C Streptococcus (4 strains); experiment: as above; details: for MIC50: read-out: MIC Range Median, Group C Streptococcus (4 strains)
[13] = read-out: MIC Range High, Escherichia coli (6 strains)
[14] = read-out: MIC Range Low, Escherichia coli (6 strains)
[15] = read-out: MIC Range High, Klebsiella pneumonia (4 strains)
[16] = read-out: MIC Range Low, Klebsiella pneumonia (4 strains)
[17] = read-out: MIC Range High, Pseudomonas aeruginosa (12 strains)
[18] = read-out: MIC Range Low, Pseudomonas aeruginosa (12 strains)
[19] = read-out: MIC Range High, Burkholderia cepacia (5 strains)
[20] = read-out: MIC Range Low, Burkholderia cepacia (5 strains)
[21] = High of the strain panel, read-out: MIC Range High, Haemophilus influenza (5 strains)
[22] = Low of the strain panel, read-out: MIC Range Low, Haemophilus influenza (5 strains)
[23] = read-out: MIC Range High, Acinetobacter baumannii (12 strains)
[24] = read-out: MIC Range Low, Acinetobacter baumannii (12 strains)
[25] = read-out: MIC Range High, Staphylococcus aureus (16 strains)
[26] = read-out: MIC Range Low, Staphylococcus aureus (16 strains)
[27] = read-out: MIC Range High, Enterococcus faecalis (5 strains)
[28] = read-out: MIC Range Low, Enterococcus faecalis (5 strains)
[29] = read-out: MIC Range High, Enterococcus faecium (3 strains)
[30] = read-out: MIC Range Low, Enterococcus faecium (3 strains)
[31] = read-out: MIC Range High, Streptococcus pneumonia (5 strains)
[32] = read-out: MIC Range Low, Streptococcus pneumonia (5 strains)
[33] = read-out: MIC Range High, Streptococcus pyogenes (4 strains)
[34] = read-out: MIC Range Low, Streptococcus pyogenes (4 strains)
[35] = read-out: MIC Range High, Group C Streptococcus (4 strains)
[36] = read-out: MIC Range Low, Group C Streptococcus (4 strains)

Structure (SMILES)	MIC [1, 13]	MIC [1, 14]	MIC50 [1]	MIC [2, 15]	MIC [2, 16]	MIC50 [2]	MIC [3, 17]	MIC50 [3]	MIC [4, 19]	MIC [4, 20]	MIC50 [4]	MIC50 [5]	MIC [5, 21]	MIC [5, 22]	MIC [6, 23]	MIC [6, 24]	MIC50 [6]	MIC [7, 25]	MIC [7, 26]	MIC50 [7]	also measured
Cc1c(-c2ccc(N)c(F)c2)c(F)cn2c(=O)c(C(=O)[O-])cc(C3CC3)c12.[K+] [Example 1 K salt, potassium 8-(4-amino-3-fluoro-phenyl)-1-cyclopropyl-7-fluoro-9-methyl-4-oxo-4H-quinolizine-3-carboxylate]	> 32 µg/mL	0.06 µg/mL	> 32 µg/mL	> 32 µg/mL	0.5 µg/mL	16 µg/mL	32 µg/mL	16 µg/mL	2 µg/mL	0.5 µg/mL	1 µg/mL	≤ 0.015 µg/mL	0.03 µg/mL	≤ 0.015 µg/mL	> 32 µg/mL	0.25 µg/mL	20 µg/mL	0.5 µg/mL	≤ 0.015 µg/mL	0.5 µg/mL	MIC [3, 18]: 2 µg/mL; MIC [8, 27]: 4 µg/mL; MIC [8, 28]: 0.12 µg/mL; MIC50 [8]: 0.12 µg/mL; MIC [9, 29]: 8 µg/mL; MIC [9, 30]: 1 µg/mL; MIC50 [9]: 2 µg/mL; MIC [10, 31]: 0.5 µg/mL; MIC [10, 32]: 0.5 µg/mL; MIC50 [10]: 0.5 µg/mL; MIC [11, 33]: 1 µg/mL; MIC [11, 34]: 0.5 µg/mL; MIC50 [11]: 0.5 µg/mL; MIC [12, 35]: 0.5 µg/mL; MIC [12, 36]: 0.12 µg/mL; MIC50 [12]: 0.25 µg/mL
Cc1c(-c2ccc(N)cc2)c(F)cn2c(=O)c(C(=O)[O-])cc(C3CC3)c12.[K+] [Example 5 K salt, potassium 8-(4-amino-phenyl)-1-cyclopropyl-7-fluoro-9-methyl-4-oxo-4H-quinolizine-3-carboxylate]	16 µg/mL	0.03 µg/mL	8 µg/mL	16 µg/mL	0.12 µg/mL	10 µg/mL	16 µg/mL	4 µg/mL	0.5 µg/mL	0.12 µg/mL	0.25 µg/mL	≤ 0.015 µg/mL	≤ 0.015 µg/mL	≤ 0.015 µg/mL	16 µg/mL	0.06 µg/mL	6 µg/mL	0.25 µg/mL	≤ 0.015 µg/mL	0.12 µg/mL	MIC [3, 18]: 1 µg/mL; MIC [8, 27]: 1 µg/mL; MIC [8, 28]: 0.03 µg/mL; MIC50 [8]: 0.06 µg/mL; MIC [9, 29]: 4 µg/mL; MIC [9, 30]: 0.25 µg/mL; MIC50 [9]: 1 µg/mL; MIC [10, 31]: 0.25 µg/mL; MIC [10, 32]: 0.12 µg/mL; MIC50 [10]: 0.12 µg/mL; MIC [11, 33]: 0.5 µg/mL; MIC [11, 34]: 0.12 µg/mL; MIC50 [11]: 0.12 µg/mL; MIC [12, 35]: 0.12 µg/mL; MIC [12, 36]: 0.06 µg/mL; MIC50 [12]: 0.06 µg/mL
Cc1c(-c2ccc(C(N)=O)cc2)c(F)cn2c(=O)c(C(=O)[O-])cc(C3CC3)c12.[K+] [Example 6 K salt, potassium 8-(4-carbamoyl-phenyl)-1-cyclopropyl-7-fluoro-9-methyl-4-oxo-4H-quinolizine-3-carboxylate]	> 32 µg/mL	0.25 µg/mL	> 32 µg/mL	> 32 µg/mL	1 µg/mL	> 32 µg/mL	> 32 µg/mL	> 32 µg/mL	4 µg/mL	1 µg/mL	2 µg/mL	0.03 µg/mL	0.06 µg/mL	0.03 µg/mL	> 32 µg/mL	1 µg/mL	> 32 µg/mL	1 µg/mL	0.03 µg/mL	0.5 µg/mL	MIC [3, 18]: 8 µg/mL; MIC [8, 27]: 4 µg/mL; MIC [8, 28]: 0.12 µg/mL; MIC50 [8]: 0.25 µg/mL; MIC [9, 29]: 8 µg/mL; MIC [9, 30]: 1 µg/mL; MIC50 [9]: 2 µg/mL; MIC [10, 31]: 0.25 µg/mL; MIC [10, 32]: 0.25 µg/mL; MIC50 [10]: 0.25 µg/mL; MIC [11, 33]: 0.25 µg/mL; MIC [11, 34]: 0.12 µg/mL; MIC50 [11]: 0.12 µg/mL; MIC [12, 35]: 0.12 µg/mL; MIC [12, 36]: 0.06 µg/mL; MIC50 [12]: 0.12 µg/mL
Cc1c(-c2ccncc2)ccn2c(=O)c(C(=O)[O-])cc(C3CC3)c12.[K+] [Example 16 K salt, potassium 1-cyclopropyl-9-methyl-4-oxo-8-(pyridin-4-yl)-4H-quinolizine-3-carboxylate]	> 32 µg/mL	0.03 µg/mL	> 32 µg/mL	> 32 µg/mL	0.12 µg/mL	16 µg/mL	> 32 µg/mL	16 µg/mL	0.5 µg/mL	0.25 µg/mL	0.25 µg/mL	≤ 0.015 µg/mL	≤ 0.015 µg/mL	≤ 0.015 µg/mL	> 32 µg/mL	0.12 µg/mL	16 µg/mL	1 µg/mL	≤ 0.015 µg/mL	1 µg/mL	MIC [3, 18]: 2 µg/mL; MIC [8, 27]: 8 µg/mL; MIC [8, 28]: 0.25 µg/mL; MIC50 [8]: 0.25 µg/mL; MIC [9, 29]: 16 µg/mL; MIC [9, 30]: 1 µg/mL; MIC50 [9]: 8 µg/mL; MIC [10, 31]: 1 µg/mL; MIC [10, 32]: 0.5 µg/mL; MIC50 [10]: 0.5 µg/mL; MIC [11, 33]: 1 µg/mL; MIC [11, 34]: 0.25 µg/mL; MIC50 [11]: 0.375 µg/mL; MIC [12, 35]: 0.5 µg/mL; MIC [12, 36]: 0.25 µg/mL; MIC50 [12]: 0.25 µg/mL
Cc1c(-c2ccc(CN)cc2)ccn2c(=O)c(C(=O)[O-])cc(C3CC3)c12.[K+] [Example 31 K salt, potassium 8-(4-(amino-methyl)-phenyl)-1-cyclopropyl-9-methyl-4-oxo-4H-quinolizine-3-carboxylate]	32 µg/mL	≤ 0.015 µg/mL	8 µg/mL	32 µg/mL	0.03 µg/mL	9 µg/mL	> 32 µg/mL	8 µg/mL	1 µg/mL	0.12 µg/mL	0.5 µg/mL	≤ 0.015 µg/mL	≤ 0.015 µg/mL	≤ 0.015 µg/mL	> 32 µg/mL	0.03 µg/mL	8 µg/mL	2 µg/mL	≤ 0.015 µg/mL	0.5 µg/mL	MIC [8, 27]: 4 µg/mL; MIC [8, 28]: 0.06 µg/mL; MIC50 [8]: 0.12 µg/mL; MIC [9, 29]: 8 µg/mL; MIC [9, 30]: 0.5 µg/mL; MIC50 [9]: 4 µg/mL; MIC [10, 31]: 0.25 µg/mL; MIC [10, 32]: 0.06 µg/mL; MIC50 [10]: 0.12 µg/mL; MIC [11, 33]: 0.25 µg/mL; MIC [11, 34]: 0.06 µg/mL; MIC50 [11]: 0.09 µg/mL; MIC [12, 35]: 0.12 µg/mL; MIC [12, 36]: 0.06 µg/mL; MIC50 [12]: 0.09 µg/mL
